Experimental findings from publication PMC5218480 (PLoS ONE, 2017) are described below.

Structures are written as SMILES.

The subject of this test is MV-4-11 cells. As to the kind of experiment: Gene expression microarray analysis (Affymetrix PrimeView) and GSEA. Type of test: cell-based, human. Set-up: RFU PODN (11730768_x_at) / Fold change /veh PODN (11730768_x_at) / RFU LINC00158 (11744669_a_at) / Fold change /veh LINC00158 (11744669_a_at) / RFU DUSP10 (11751237_a_at) / Fold change /veh DUSP10 (11751237_a_at) / RFU ID3 (11757404_x_at) / Fold change /veh ID3 (11757404_x_at) / RFU PLEKHG5 (11737974_s_at) / Fold change /veh PLEKHG5 (11737974_s_at) / RFU LRRC4B (11730491_at) / Fold change /veh LRRC4B (11730491_at) / RFU GIMAP4 (11747438_a_at) / Fold change /veh GIMAP4 (11747438_a_at) / RFU KRT8 (11758183_x_at) / Fold change /veh KRT8 (11758183_x_at) / RFU CNN1 (11734310_a_at) / Fold change /veh CNN1 (11734310_a_at) / RFU VPS37D (11726825_at) / Fold change /veh VPS37D (11726825_at) / RFU C10orf10 (11716522_x_at) / Fold change /veh C10orf10 (11716522_x_at) / RFU KIR2DL2 /// KIR2DL4 /// KIR2DL5A /// KIR2DL5B /// KIR2DS1 /// KIR2DS2 /// KIR2DS3 /// KIR2DS4 /// KIR3DL3 /// KIR3DL3 /// KIR3DS1 (11738374_at) / Fold change /veh KIR2DL2 /// KIR2DL4 /// KIR2DL5A /// KIR2DL5B /// KIR2DS1 /// KIR2DS2 /// KIR2DS3 /// KIR2DS4 /// KIR3DL3 /// KIR3DL3 /// KIR3DS1 (11738374_at) / RFU C1QL1 (11718748_at) / Fold change /veh C1QL1 (11718748_at) / RFU TMPRSS4 (11747572_a_at) / Fold change /veh TMPRSS4 (11747572_a_at) / RFU HAMP (11756126_x_at) / Fold change /veh HAMP (11756126_x_at) / RFU RNFT2 (11725882_a_at) / Fold change /veh RNFT2 (11725882_a_at) / RFU NR4A2 (11747474_a_at) / Fold change /veh NR4A2 (11747474_a_at) / RFU ABCC12 (11746883_a_at) / Fold change /veh ABCC12 (11746883_a_at) / RFU TMEM136 (11760407_x_at) / Fold change /veh TMEM136 (11760407_x_at) / RFU CLDN22 /// WWC2 (11732394_at) / Fold change /veh CLDN22 /// WWC2 (11732394_at) / RFU HLA-DPB1 (11760878_x_at) / Fold change /veh HLA-DPB1 (11760878_x_at) / RFU SPINT1 (11716480_a_at) / Fold change /veh SPINT1 (11716480_a_at) / RFU GAP43 (11754022_s_at) / Fold change /veh GAP43 (11754022_s_at) / RFU A4GNT (11735810_at) / Fold change /veh A4GNT (11735810_at) / RFU PRB3 (11715151_x_at) / Fold change /veh PRB3 (11715151_x_at) / RFU TUBB4B (11761932_at) / Fold change /veh TUBB4B (11761932_at) / RFU CAPN14 (11732068_a_at) / Fold change /veh CAPN14 (11732068_a_at) / RFU TMCC2 (11721928_a_at) / Fold change /veh TMCC2 (11721928_a_at) / RFU IRGQ (11745062_a_at) / Fold change /veh IRGQ (11745062_a_at) / RFU FAM174B (11720279_a_at) / Fold change /veh FAM174B (11720279_a_at) / RFU TMPRSS4 (11748680_a_at) / Fold change /veh TMPRSS4 (11748680_a_at) / RFU FAM212B (11763350_a_at) / Fold change /veh FAM212B (11763350_a_at) / RFU PLEKHG5 (11743358_a_at) / Fold change /veh PLEKHG5 (11743358_a_at) / RFU ZSCAN30 (11745921_a_at) / Fold change /veh ZSCAN30 (11745921_a_at) / RFU CMKLR1 (11741424_a_at) / Fold change /veh CMKLR1 (11741424_a_at) / RFU LOC101060620 /// MAPK8IP1 (11723275_at) / Fold change /veh LOC101060620 /// MAPK8IP1 (11723275_at) / RFU SPTSSB (11747773_x_at) / Fold change /veh SPTSSB (11747773_x_at) / RFU PRSS12 (11739890_at) / Fold change /veh PRSS12 (11739890_at) / RFU BIN1 (11741810_x_at) / Fold change /veh BIN1 (11741810_x_at) / RFU WNT11 (11732464_a_at) / Fold change /veh WNT11 (11732464_a_at) / RFU C10orf10 (11716521_a_at) / Fold change /veh C10orf10 (11716521_a_at) / RFU C5orf56 (11738089_at) / Fold change /veh C5orf56 (11738089_at) / RFU CYB561 (11721691_x_at) / Fold change /veh CYB561 (11721691_x_at) / RFU ANKRD19P (11752326_a_at) / Fold change /veh ANKRD19P (11752326_a_at) / RFU OR2T12 /// OR2T33 /// OR2T8 (11738714_s_at) / Fold change /veh OR2T12 /// OR2T33 /// OR2T8 (11738714_s_at) / RFU VCAN (11748164_a_at) / Fold change /veh VCAN (11748164_a_at) / RFU JSRP1 (11732532_at) / Fold change /veh JSRP1 (11732532_at) / RFU KRTAP10-11 (11738290_x_at) / Fold change /veh KRTAP10-11 (11738290_x_at) / RFU MYO3A (11730013_a_at) / Fold change /veh MYO3A (11730013_a_at) / RFU EBF3 (11725865_a_at) / Fold change /veh EBF3 (11725865_a_at) / RFU CAMK2N1 (11719241_x_at) / Fold change /veh CAMK2N1 (11719241_x_at) / RFU C5orf56 (11738088_a_at) / Fold change /veh C5orf56 (11738088_a_at) / RFU OLFML3 (11715873_a_at) / Fold change /veh OLFML3 (11715873_a_at) / RFU LOC100653217 /// NTM (11731650_a_at) / Fold change /veh LOC100653217 /// NTM (11731650_a_at) / RFU MAPK11 (11762145_a_at) / Fold change /veh MAPK11 (11762145_a_at) / RFU FIZ1 (11724087_x_at) / Fold change /veh FIZ1 (11724087_x_at) / RFU OASL (11726364_x_at) / Fold change /veh OASL (11726364_x_at) / RFU SOX15 (11748057_x_at) / Fold change /veh SOX15 (11748057_x_at) / RFU CD79A (11719716_a_at) / Fold change /veh CD79A (11719716_a_at) / RFU HIST1H1D (11736915_at) / Fold change /veh HIST1H1D (11736915_at) / RFU CASKIN2 (11723855_a_at) / Fold change /veh CASKIN2 (11723855_a_at) / RFU LOC730098 (11760151_x_at) / Fold change /veh LOC730098 (11760151_x_at) / RFU OR4N2 (11742367_at) / Fold change /veh OR4N2 (11742367_at) / RFU PRRT2 (11749266_a_at) / Fold change /veh PRRT2 (11749266_a_at) / RFU SNX32 (11753110_a_at) / Fold change /veh SNX32 (11753110_a_at) / RFU CDHR5 (11726645_a_at) / Fold change /veh CDHR5 (11726645_a_at) / RFU RCAN1 (11760418_a_at) / Fold change /veh RCAN1 (11760418_a_at) / RFU FAM167A (11723789_a_at) / Fold change /veh FAM167A (11723789_a_at) / RFU FAM26E (11764081_at) / Fold change /veh FAM26E (11764081_at) / RFU ISYNA1 (11749810_s_at) / Fold change /veh ISYNA1 (11749810_s_at) / RFU ACY1 (11761880_at) / Fold change /veh ACY1 (11761880_at) / RFU 11764098_at / Fold change /veh 11764098_at / RFU SAMD14 (11745864_x_at) / Fold change /veh SAMD14 (11745864_x_at) / RFU NPB (11741838_a_at) / Fold change /veh NPB (11741838_a_at) / RFU TMPRSS6 (11731388_a_at) / Fold change /veh TMPRSS6 (11731388_a_at) / RFU KRTAP10-2 (11738614_at) / Fold change /veh KRTAP10-2 (11738614_at) / RFU ARHGAP8 /// PRR5-ARHGAP8 (11727945_x_at) / Fold change /veh ARHGAP8 /// PRR5-ARHGAP8 (11727945_x_at) / RFU KRTAP5-7 /// NADSYN1 (11734609_at) / Fold change /veh KRTAP5-7 /// NADSYN1 (11734609_at) / RFU RASL12 (11751679_a_at) / Fold change /veh RASL12 (11751679_a_at) / RFU CDKN2B (11736163_a_at) / Fold change /veh CDKN2B (11736163_a_at) / RFU PRF1 (11729649_at) / Fold change /veh PRF1 (11729649_at) / RFU, ZNF638 /// ZNF638-IT1 / Fold change vs veh, ZNF638 /// ZNF638-IT1 / RFU, PANK3 / Fold change vs veh, PANK3 / RFU, SH3YL1 / Fold change vs veh, SH3YL1 / RFU, ZEB2 / Fold change vs veh, ZEB2 / RFU, NRIP1 / Fold change vs veh, NRIP1 / RFU, PTTG1IP / Fold change vs veh, PTTG1IP / RFU, CAPN2 / Fold change vs veh, CAPN2 / RFU, MED14 / Fold change vs veh, MED14 / RFU, SNORA58 / Fold change vs veh, SNORA58 / RFU, C1orf63 / Fold change vs veh, C1orf63 / RFU, LRRFIP1 / Fold change vs veh, LRRFIP1 / RFU, NDUFAF7 / Fold change vs veh, NDUFAF7 / RFU, SLC12A2 / Fold change vs veh, SLC12A2 / RFU, IBTK / Fold change vs veh, IBTK / RFU, ESF1 / Fold change vs veh, ESF1 / Fold change vs veh, TMEM50B / RFU, TAOK1 / Fold change vs veh, TAOK1 / RFU, ACBD3 / Fold change vs veh, ACBD3 / RFU, TMA16 / Fold change vs veh, TMA16 / RFU, RWDD3 / Fold change vs veh, RWDD3 / RFU, BCAT1 / Fold change vs veh, BCAT1 / RFU, EDEM3 / Fold change vs veh, EDEM3 / RFU, TMEM33 / Fold change vs veh, TMEM33 / RFU, WDR75 / Fold change vs veh, WDR75 / RFU, AHCTF1 / Fold change vs veh, AHCTF1 / RFU, TFRC / Fold change vs veh, TFRC / RFU, ZDHHC17 / Fold change vs veh, ZDHHC17 / RFU, NOM1 / Fold change vs veh, NOM1 / RFU, ARL8B / Fold change vs veh, ARL8B / RFU, ZBTB11 / Fold change vs veh, ZBTB11 / RFU, TAMM41 / Fold change vs veh, TAMM41 / RFU, KIAA1704 /// LOC100996395 / Fold change vs veh, KIAA1704 /// LOC100996395 / RFU, ING1 / Fold change vs veh, ING1 / RFU, TRMT61B / Fold change vs veh, TRMT61B / RFU, FUBP3 / Fold change vs veh, FUBP3 / RFU, TP53 / Fold change vs veh, TP53 / RFU, TNKS2 / Fold change vs veh, TNKS2 / RFU, ZFP14 / Fold change vs veh, ZFP14 / RFU, ACTR2 / Fold change vs veh, ACTR2 / RFU, PPP3R1 / Fold change vs veh, PPP3R1 / RFU, PIK3R1 / Fold change vs veh, PIK3R1 / RFU, HNRNPA1 / Fold change vs veh, HNRNPA1 / RFU, RNF170 / Fold change vs veh, RNF170 / RFU, ZNF28 / Fold change vs veh, ZNF28 / RFU, RNGTT / Fold change vs veh, RNGTT / RFU, OGT / Fold change vs veh, OGT / RFU, BRD1 / Fold change vs veh, BRD1 / RFU, MARS / Fold change vs veh, MARS / RFU, ZNF655 / Fold change vs veh, ZNF655 / RFU, FAHD1 / Fold change vs veh, FAHD1 / RFU, BDP1 / Fold change vs veh, BDP1 / RFU, LRRCC1 / Fold change vs veh, LRRCC1 / RFU, ARID1A / Fold change vs veh, ARID1A / RFU, ZNF146 / Fold change vs veh, ZNF146 / RFU, ZNF330 / Fold change vs veh, ZNF330 / RFU, GPN3 / Fold change vs veh, GPN3 / RFU, C9orf123 / Fold change vs veh, C9orf123 / RFU, N4BP2L2 / Fold change vs veh, N4BP2L2 / RFU, ARFIP1 / Fold change vs veh, ARFIP1 / RFU, FAM179B / Fold change vs veh, FAM179B / RFU, BCL10 / Fold change vs veh, BCL10 / RFU, UHRF1BP1L / Fold change vs veh, UHRF1BP1L / RFU, BET1 / Fold change vs veh, BET1 / RFU, CNOT2 / Fold change vs veh, CNOT2 / RFU, ZNF268 / Fold change vs veh, ZNF268 / Fold change vs veh, ZNF507 / RFU, DGCR2 / Fold change vs veh, DGCR2 / RFU, WDSUB1 / Fold change vs veh, WDSUB1 / Fold change vs veh, HSP90B1 /// MIR3652 / RFU, ADSS / Fold change vs veh, ADSS / RFU, GK / Fold change vs veh, GK / RFU, ZNF148 / Fold change vs veh, ZNF148 / RFU, TAF9 / Fold change vs veh, TAF9 / RFU, SLC1A5 / Fold change vs veh, SLC1A5 / RFU, SLMO2 / Fold change vs veh, SLMO2 / RFU, ABCC4 / Fold change vs veh, ABCC4 / RFU, LOC101060439 /// RAP1B / Fold change vs veh, LOC101060439 /// RAP1B / RFU, RFX7 / Fold change vs veh, RFX7 / RFU, GTPBP10 / Fold change vs veh, GTPBP10 / RFU, CNEP1R1 / Fold change vs veh, CNEP1R1 / RFU, BIVM-ERCC5 /// ERCC5 / Fold change vs veh, BIVM-ERCC5 /// ERCC5 / RFU, ILF3 / Fold change vs veh, ILF3 / RFU 11762660_at / Fold change /veh 11762660_at / RFU VCAN (11757783_s_at) / Fold change /veh VCAN (11757783_s_at) / RFU DDX43 (11728927_at) / Fold change /veh DDX43 (11728927_at) / RFU KRT8 (11758188_x_at) / Fold change /veh KRT8 (11758188_x_at) / RFU NKD1 (11759106_at) / Fold change /veh NKD1 (11759106_at) / RFU SRD5A1 (11742802_a_at) / Fold change /veh SRD5A1 (11742802_a_at) / RFU TPSAB1 /// TPSB2 (11721975_s_at) / Fold change /veh TPSAB1 /// TPSB2 (11721975_s_at) / RFU GSTM3 (11746129_a_at) / Fold change /veh GSTM3 (11746129_a_at) / RFU IL23R (11737362_x_at) / Fold change /veh IL23R (11737362_x_at) / RFU TMEM51 (11727254_a_at) / Fold change /veh TMEM51 (11727254_a_at) / RFU PIWIL2 (11732686_x_at) / Fold change /veh PIWIL2 (11732686_x_at) / RFU ORM1 (11744905_x_at) / Fold change /veh ORM1 (11744905_x_at) / RFU CCDC152 (11743942_at) / Fold change /veh CCDC152 (11743942_at) / RFU ECM1 (11717891_a_at) / Fold change /veh ECM1 (11717891_a_at) / RFU IL23R (11748794_a_at) / Fold change /veh IL23R (11748794_a_at) / RFU TNFAIP8L3 (11732012_x_at) / Fold change /veh TNFAIP8L3 (11732012_x_at) / RFU MBOAT4 (11741988_at) / Fold change /veh MBOAT4 (11741988_at) / RFU 11764193_at / Fold change /veh 11764193_at / RFU TMEM53 (11763286_at) / Fold change /veh TMEM53 (11763286_at) / RFU MAGEB2 (11727129_at) / Fold change /veh MAGEB2 (11727129_at) / RFU TMEM200A (11744735_a_at) / Fold change /veh TMEM200A (11744735_a_at) / RFU CCDC152 (11751479_a_at) / Fold change /veh CCDC152 (11751479_a_at) / RFU FAM211A (11726209_a_at) / Fold change /veh FAM211A (11726209_a_at) / RFU RGS16 (11746705_a_at) / Fold change /veh RGS16 (11746705_a_at) / RFU VCAN (11755009_s_at) / Fold change /veh VCAN (11755009_s_at) / RFU RHOB (11743442_s_at) / Fold change /veh RHOB (11743442_s_at) / RFU RGS16 (11720943_a_at) / Fold change /veh RGS16 (11720943_a_at) / RFU RGS16 (11720944_at) / Fold change /veh RGS16 (11720944_at) / RFU, VPS4B / Fold change vs veh, VPS4B / RFU, CREB1 / Fold change vs veh, CREB1 / RFU, DNAJC13 / Fold change vs veh, DNAJC13 / RFU, GNAQ / Fold change vs veh, GNAQ / RFU, CDK5R1 / Fold change vs veh, CDK5R1 / RFU, ZRANB3 / Fold change vs veh, ZRANB3 / RFU, CUL4A / Fold change vs veh, CUL4A / RFU, CCNY / Fold change vs veh, CCNY / RFU, UFL1 / Fold change vs veh, UFL1 / RFU, COG3 / Fold change vs veh, COG3 / RFU, DIAPH2 / Fold change vs veh, DIAPH2 / RFU, SKA2 / Fold change vs veh, SKA2 / RFU, AFF3 / Fold change vs veh, AFF3 / RFU, LMF1 / Fold change vs veh, LMF1 / RFU, IPO11 / Fold change vs veh, IPO11 / RFU, DFFB / Fold change vs veh, DFFB / RFU, FOXP1 / Fold change vs veh, FOXP1 / RFU, CARD8 / Fold change vs veh, CARD8 / RFU, STRN3 / Fold change vs veh, STRN3 / RFU, ADK / Fold change vs veh, ADK / RFU, RASSF2 / Fold change vs veh, RASSF2 / RFU, WIPF1 / Fold change vs veh, WIPF1 / RFU, LARP1B / Fold change vs veh, LARP1B / RFU, RASA1 / Fold change vs veh, RASA1 / RFU, RB1 / Fold change vs veh, RB1 / RFU, PPFIA1 / Fold change vs veh, PPFIA1 / RFU, MAT2A / Fold change vs veh, MAT2A / RFU, CCT5 / Fold change vs veh, CCT5 / RFU, WDR92 / Fold change vs veh, WDR92 / RFU, CUX1 / Fold change vs veh, CUX1 / RFU, TTC7A / Fold change vs veh, TTC7A / RFU, TMEM135 / Fold change vs veh, TMEM135 / RFU, DEPTOR / Fold change vs veh, DEPTOR / RFU, CPM / Fold change vs veh, CPM / RFU, DNAJB6 / Fold change vs veh, DNAJB6 / RFU, CACNA2D3 / Fold change vs veh, CACNA2D3 / RFU, DTX4 / Fold change vs veh, DTX4 / RFU, TFCP2 / Fold change vs veh, TFCP2 / RFU, GMCL1 /// GMCL1P1 / Fold change vs veh, GMCL1 /// GMCL1P1 / RFU, AEBP2 / Fold change vs veh, AEBP2 / RFU, SNHG1 /// SNORD22 /// SNORD25 /// SNORD26 /// SNORD27 /// SNORD28 /// SNORD29 /// SNORD31 / Fold change vs veh, SNHG1 /// SNORD22 /// SNORD25 /// SNORD26 /// SNORD27 /// SNORD28 /// SNORD29 /// SNORD31 / Fold change (Aza/veh), C12orf56 (ProbeSet 11735607_a_at) / Fold change (ACY-1035/veh), C12orf56 (ProbeSet 11735607_a_at) / Fold change (Aza/veh), FGFR1OP (ProbeSet 11751329_s_at) / Fold change (ACY-1035/veh), FGFR1OP (ProbeSet 11751329_s_at) / Fold change (Aza/veh), VPS36 (ProbeSet 11739960_a_at) / Fold change (ACY-1035/veh), VPS36 (ProbeSet 11739960_a_at) / RFU SYPL1 (11715823_x_at) / Fold change /veh SYPL1 (11715823_x_at) / RFU IGFBP7 (11715501_s_at) / Fold change /veh IGFBP7 (11715501_s_at) / RFU REEP3 (11722064_at) / Fold change /veh REEP3 (11722064_at) / RFU IGLL1 (11728026_x_at) / Fold change /veh IGLL1 (11728026_x_at): dose or concentration left out as unconfirmed. As to conditions: ProbeSet 11741199_a_at; LIST B.

`Nc1ccc(-c2cccs2)cc1NC(=O)c1ccc2c(c1)cc(C1CC1)n2CCN1CCOCC1` [ACY-1035]: the “Fold change vs veh, LRRCC1” value is 0.84.
